Assays:
[1] = cited from earlier work; for single-dose oral LD50: from Patty's Industrial Hygiene and Toxicology, 1978; for toxicity ranking / hazard in words: based on laboratory test data, direct ingestion
[2] = U.S. Pat. No. 4,830,765, cited from earlier work; for swelling of bentonite: 100% glycol fluid; for concentration needed to provide appreciable swelling inhibition on bentonite: in a fluid phase
[3] = Swelling test, Louisiana gumbo shale; conditions: gumbo shale pellets
Text: The swelling inhibition effects of drilling fluids of this invention on water-sensitive shales have been evaluated by performing swelling tests using a Computer-Aided Swellmeter developed by M-I Drilling Fluids L.L.C. This device is described in, Lee, John, "Swellmeter Analysis," M-I® TECH-NEWS, November 1989. Pellets with 1 inch diameter, prepared by compressing pulverized water-sensitive shales under controlled loads, are placed in specially designed holders and allowed to be in direct contact with test fluids. The pellets are allowed to adsorb test fluids and swell for a period of time ranging from about 60 to 120 hours in the test fluids. Volume expansions of the pellets are recorded by using liner variable differential transformers. The volume expansions of the pellets and slopes of the swelling curves at the end of the test are used to evaluate the water adsorption and swelling inhibition of the test fluids.
The swelling tests were performed according to the test procedures given above. The argillaceous rock used for the tests was a "gumbo shale" obtained from offshore Louisiana. The gumbo shale was pulverized and pressed into 1 inch diameter pellets under 10,000 pounds of force for 5 minutes. The volume expansions of the pellets and the swelling rates calculated from swelling data obtained between 55 and 60 hours of the test are shown in Table 2. […]

| Compound | single-dose oral LD50 [1] | toxicity ranking / hazard in words [1] | concentration needed to provide appreciable swelling inhibition on bentonite [2] [% by weight] | further results |
| --- | --- | --- | --- | --- |
| OCCOCCOCCO [Triethylene Glycol] | 16-22 gm/KG | – | – | – |
| CC(O)COC(C)COC(C)CO (stereo not drawn) [Tripropylene Glycol] | – | – | – | swelling of bentonite [2]: completely prevented |
| Dipropylene Glycol | ~ 15 gm/KG | – | – | – |
| OCCOCCO [Diethylene Glycol] | 16-21 gm/KG | – | – | – |
| C[N+](C)(C)CCO.[Cl-] [Choline Chloride, choline chloride] | – | – | – | swelling inhibition in words [3]: more effective than the inorganic cationic material |
| Butylene Glycol | 23-30 gm/KG | least toxic | – | – |
| OCCO [Ethylene Glycol] | 6-12 gm/KG | most toxic | – | – |
| CC(O)CO (stereo not drawn) [Propylene Glycol] | 21-34 gm/KG | least toxic | ≥ 50 | swelling of bentonite [2]: completely prevented |
| OC[C@@H](O)[C@@H](O)[C@H](O)[C@@H](O)CO [sorbitol] | – | – | ≥ 50 | – |
| OCC(O)CO [glycerin] | – | – | ≥ 50 | – |
